# PubChem BioAssay AID1918946 (Molecular Pharmacology Branch, DTP, NCI, 2023)
# “And” between values parts separate entries of the source, which are not always exact repeats. Equal values may be shown once. The source made the active and inactive calls. The calls were made as follows: active = viability on the fitted dose curve at most 10% of control; inactive = the rest.
# Tested on: 885512-296-R-J2-PDC complex spheroid viability
# Test: Anticancer human tumor 885512-296-R-J2-PDC patient-derived breast carcinoma cell line growth inhibition
# Details: for viability, T/C: stronger effect = lower value
# Procedure, shortened: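 Complex spheroids of tumor cells with HUVEC and human MSCs, exposed to iadademstat combined with other agents. Each agent tested in half-log steps from near clinical Cmax (else 10 microM top), DMSO ≤0.25%.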
# [1] = curve of first compound, second compound 0.1 µM
# [2] = curve of first compound, second compound 0.316 µM
# [3] = curve of first compound, second compound 1 µM
# [4] = curve of first compound, second compound 3.16 µM
# [5] = curve of first compound, second compound 10 µM
# [6] = second compound 0.1 µM, first compound 0.0316 µM
# [7] = second compound 0.1 µM, first compound 0.1 µM
# [8] = second compound 0.316 µM, first compound 0.0316 µM
# [9] = second compound 0.316 µM, first compound 0.1 µM
# [10] = second compound 1 µM, first compound 0.0316 µM
# [11] = second compound 1 µM, first compound 0.1 µM
# [12] = second compound 3.16 µM, first compound 0.0316 µM
# [13] = second compound 3.16 µM, first compound 0.1 µM
# [14] = second compound 10 µM, first compound 0.0316 µM
# [15] = second compound 10 µM, first compound 0.1 µM
# 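For IC50 in this document: spheroids exposed to agents for 7 days before viability read.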
# 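For viability, T/C in this document: spheroids exposed to agents for 7 days before viability read.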
smiles,measurement,setting,value
CCc1c2c(nc3ccc(O)cc13)-c1cc3c(c(=O)n1C2)COC(=O)[C@]3(O)CC,"viability, T/C",compound 0.000949 µM,7.33% and 2.09%
same,"viability, T/C",compound 0.003 µM,4.69% and 2%
same,"viability, T/C",compound 0.00949 µM,4.28% and 1.07%
same,"viability, T/C",compound 0.03 µM,6.78% and 1.14%
same,"viability, T/C",compound 0.0949 µM,12.3% and 1.2%
same,"viability, T/C",compound 0.3 µM,3.96% and 1.27%
same,IC50,curve of compound,< 0.949 nM
NC1CC1c1ccc(-c2cccc(O)c2)cc1 (stereo not given),"viability, T/C",compound 0.1 µM,133%
same,IC50,"compound alone, run of 02/01/2022",> 10000 nM
NS(=O)(=O)OCC1CC(n2ccc3c(NC4CCc5ccccc54)ncnc32)CC1O (stereo not given),"viability, T/C",compound 0.00949 µM,19.9% and 20.9%
same,"viability, T/C",compound 0.03 µM,8.83% and 6.03%
same,"viability, T/C",compound 0.0949 µM,7.38% and 2.26%
same,"viability, T/C",compound 0.3 µM,4.17% and 1.57%
same,"viability, T/C",compound 0.949 µM,8.44% and 0.8%
same,"viability, T/C",compound 3 µM,6.16% and 0.67%
same,IC50,curve of compound,< 9.49 nM
CC1COCCN1c1cc(-c2ccnn2C)c2ccnc(-c3ccn[nH]3)c2n1 (stereo not given),"viability, T/C",compound 0.01 µM,6.26% and 3.04%
same,"viability, T/C",compound 0.0316 µM,2.66% and 1.79%
same,"viability, T/C",compound 0.1 µM,2.1% and 2.15%
same,"viability, T/C",compound 0.316 µM,4.57% and 2.49%
same,"viability, T/C",compound 1 µM,11.1% and 3.37%
same,IC50,curve of compound,< 3.16 nM
CC(C)c1c(-c2ccccc2)nc2c(C#N)c[nH]n2c1=O + NC1CCC(NC2CC2c2ccccc2)CC1,IC50,[1],> 10000 nM
same,IC50,[2],> 10000 nM
same,IC50,[3],> 10000 nM
same,IC50,[4],> 10000 nM
same,IC50,[5],> 10000 nM
same,"viability, T/C",[6],121%
same,"viability, T/C",[7],123%
same,"viability, T/C","second compound 0.1 µM, first compound 0.316 µM",137%
same,"viability, T/C","second compound 0.1 µM, first compound 1 µM",128%
same,"viability, T/C","second compound 0.1 µM, first compound 3.16 µM",116%
same,"viability, T/C","second compound 0.1 µM, first compound 10 µM",119%
same,"viability, T/C",[8],133%
same,"viability, T/C",[9],126%
same,"viability, T/C","second compound 0.316 µM, first compound 0.316 µM",137%
same,"viability, T/C","second compound 0.316 µM, first compound 1 µM",131%
same,"viability, T/C","second compound 0.316 µM, first compound 3.16 µM",118%
same,"viability, T/C","second compound 0.316 µM, first compound 10 µM",113%
same,"viability, T/C",[10],135%
same,"viability, T/C",[11],114%
same,"viability, T/C","second compound 1 µM, first compound 0.316 µM",129%
same,"viability, T/C","second compound 1 µM, first compound 1 µM",123%
same,"viability, T/C","second compound 1 µM, first compound 3.16 µM",148%
same,"viability, T/C","second compound 1 µM, first compound 10 µM",110%
same,"viability, T/C",[12],111%
same,"viability, T/C",[13],122%
same,"viability, T/C","second compound 3.16 µM, first compound 0.316 µM",120%
same,"viability, T/C","second compound 3.16 µM, first compound 1 µM",145%
same,"viability, T/C","second compound 3.16 µM, first compound 3.16 µM",115%
same,"viability, T/C","second compound 3.16 µM, first compound 10 µM",118%
same,"viability, T/C",[14],99.3%
same,"viability, T/C",[15],85.5%
same,"viability, T/C","second compound 10 µM, first compound 0.316 µM",97.2%
same,"viability, T/C","second compound 10 µM, first compound 1 µM",109%
same,"viability, T/C","second compound 10 µM, first compound 3.16 µM",104%
same,"viability, T/C","second compound 10 µM, first compound 10 µM",114%
CC[C@@]1(O)C(=O)OCc2c1cc1n(c2=O)Cc2cc3c(CN(C)C)c(O)ccc3nc2-1 + NC1CC1c1ccc(-c2cccc(O)c2)cc1,IC50,[1],0.93 nM
same,IC50,[2],1.06 nM
same,IC50,[3],0.805 nM
same,IC50,[4],0.791 nM
same,IC50,[5],0.592 nM
same,"viability, T/C","second compound 0.1 µM, first compound 0.000316 µM",92.2%
same,"viability, T/C","second compound 0.1 µM, first compound 0.001 µM",47.2%
same,"viability, T/C","second compound 0.1 µM, first compound 0.00316 µM",4.42%
same,"viability, T/C","second compound 0.1 µM, first compound 0.01 µM",3.26%
same,"viability, T/C",[6],2.54%
same,"viability, T/C",[7],1.68%
same,"viability, T/C","second compound 0.316 µM, first compound 0.000316 µM",97.2%
same,"viability, T/C","second compound 0.316 µM, first compound 0.001 µM",52.5%
same,"viability, T/C","second compound 0.316 µM, first compound 0.00316 µM",4.34%
same,"viability, T/C","second compound 0.316 µM, first compound 0.01 µM",2.93%
same,"viability, T/C",[8],1.9%
same,"viability, T/C",[9],1.67%
same,"viability, T/C","second compound 1 µM, first compound 0.000316 µM",92.2%
same,"viability, T/C","second compound 1 µM, first compound 0.001 µM",40.2%
same,"viability, T/C","second compound 1 µM, first compound 0.00316 µM",5.01%
same,"viability, T/C","second compound 1 µM, first compound 0.01 µM",3.22%
same,"viability, T/C",[10],2.56%
same,"viability, T/C",[11],1.7%
same,"viability, T/C","second compound 3.16 µM, first compound 0.000316 µM",91.8%
same,"viability, T/C","second compound 3.16 µM, first compound 0.001 µM",39.3%
same,"viability, T/C","second compound 3.16 µM, first compound 0.00316 µM",4.57%
same,"viability, T/C","second compound 3.16 µM, first compound 0.01 µM",2.89%
same,"viability, T/C",[12],1.84%
same,"viability, T/C",[13],1.56%
same,"viability, T/C","second compound 10 µM, first compound 0.000316 µM",72.7%
same,"viability, T/C","second compound 10 µM, first compound 0.001 µM",31.1%
same,"viability, T/C","second compound 10 µM, first compound 0.00316 µM",3.84%
same,"viability, T/C","second compound 10 µM, first compound 0.01 µM",3.11%
same,"viability, T/C",[14],2.42%
same,"viability, T/C",[15],1.6%
CC(C)c1c(-c2ccccc2)nc2c(C#N)c[nH]n2c1=O,"viability, T/C",compound 0.0316 µM,90.7% and 86%
same,"viability, T/C",compound 0.1 µM,106% and 89.1%
same,"viability, T/C",compound 0.316 µM,86.7% and 80.9%
same,"viability, T/C",compound 1 µM,99.3% and 81%
same,"viability, T/C",compound 3.16 µM,92.9% and 87.5%
same,outcome,compound 10 µM,active
same,"viability, T/C",compound 10 µM,57%
same,IC50,curve of compound,4130 nM and > 10000 nM
